{"source": "patent US8765173B2", "about": "“Drug delivery system for administration of a water soluble, cationic and amphiphilic pharmaceutically active substance” (Ardenia Investments, Ltd., priority 2007, dated 2014)", "key": {"[1]": {"conditions": "stated in Example 1 without method; cited from earlier work"}, "[2]": {"assay": "Solubility in water by UV method", "conditions": "thermodynamic from solid"}, "physchem": {"assay": "physchem", "conditions": "water, thermodynamic from solid"}}, "note": "Counter-ions that a name gives are not always drawn."}
{"molecule": "COc1cccc2c1C(=O)c1c(O)c3c(c(O)c1C2=O)C[C@@](O)(C(=O)CO)C[C@@H]3O[C@H]1C[C@H](N)[C@H](O)[C@H](C)O1", "note": "[doxorubicin hydrochloride]", "values": [{"measurement": "soluble in water in an amount of", "setting": "[1]", "result": "more than 25 mg/ml"}]}
{"molecule": "COc1cccc2c1C(=O)c1c(O)c3c(c(O)c1C2=O)C[C@@](O)(C(=O)CO)C[C@@H]3O[C@H]1C[C@H](N)[C@H](O)[C@H](C)O1", "note": "[doxorubicin in amine form, doxorubicin]", "values": [{"measurement": "solubility", "setting": "[2]", "result": 15, "unit": "µg/mL"}]}
{"molecule": "O=C1c2c(O)ccc(O)c2C(=O)c2c(NCCNCCO)ccc(NCCNCCO)c21", "note": "[mitoxantrone in amine form, mitoxantrone]", "values": [{"measurement": "solubility", "setting": "physchem", "result": 30, "unit": "µg/mL"}]}
{"molecule": "CC[C@@]1(O)C(=O)OCc2c1cc1n(c2=O)Cc2cc3c(CN(C)C)c(O)ccc3nc2-1", "note": "[topotecan in amine form, topotecan]", "values": [{"measurement": "solubility", "setting": "physchem", "result": 90, "unit": "µg/mL"}]}
